“Also recorded” adds a separate entry of the source. Where two headings read alike, the source gives them in different places.
Legend:
[1] = system: HepG2 cells; test: Mitochondrial toxicity in HepG2 cells (COX-I / SDH-A ratio); details: up to 11-day incubation
Excerpt: Mean values shown as individual data points; standard deviations as error bars (FIG. 4).

[2] = 13 week, GLP; cited from earlier work
[3] = in vitro; type: cell-based; details: human; Huh-7 cell derived CHIKV replicon cells
Excerpt: (§1) FIG. 3. Antiviral activity of I-3 against ZIKV and CHIKV replication and cell viability determined in Huh-7 cell derived CHIKV replicon cells by intracellular ATP quantification (CellTiter-Glo).
(§2) Antiviral activity of I-3 (prodrug of 4AU) against ZIKV and CHIKV replication and cell viability determined in Huh-7 cell derived CHIKV replicon cells by intracellular ATP quantification (CellTiter-Glo).

[4] = human, in vivo; cited from earlier work
[5] = system: Chikungunya replicon (CHIKV strain LR2006 OPY-1, GenBank EU224270); test: Chikungunya replicon antiviral activity; type: cell-based; details: Chikungunya virus
Excerpt: as §1, §2

[6] = 13 week, GLP; cited from earlier work; remark: listed apart in the source
[7] = system: HCV replicon of genotype 1b (Con1); test: HCV replicon genotype 1b antiviral activity; type: cell-based; details: Hepatitis C virus; replicon genotype 1b (Con1); read-out: HCV GT1b EC50
[8] = type: in vitro ADME, human
Method: The formation of 4AUTP triphosphate is determined in human cells (Huh-7 cells, PBMC), and representative mouse, rat, dog and cynomolgus monkey cells. The intracellular triphosphate concentration is determined using LC-MS/MS. In human cells, the time and concentration dependent formation of 4AUTP triphosphate is determined, as well as the half-life after removal of all extracellular prodrug by exchange of cell culture medium. Analysis of intracellular nucleoside phosphates is conducted using well-established methods.

[9] = Cytotoxicity (CC50) alongside HCV GT1b replicon assay; details: HCV GT1b (Con1) replicon cells
[10] = system: HCV replication; details: humans; cited from earlier work
[11] = biological target: influenza polymerase (Influenza A virus, UniProt P03431); test: Activity against influenza polymerase; type: biochemical
[12] = biological target: T1, human RNA polymerase III (Homo sapiens, UniProt O14802+Q9NW08); test: Human RNA polymerase III activity in cell extracts; type: biochemical
T1 construct: endogenous in cells; host or cells: HeLa

[13] = biological target: T2, human RNA polymerase I (Homo sapiens, UniProt O95602+Q9H9Y6); test: Human RNA polymerase I activity in cell extracts; type: biochemical
T2 construct: endogenous in cells; host or cells: HeLa

[14] = system: RSV polymerase; test: Activity against RSV polymerase; type: biochemical
[15] = biological target: T3, human DNA polymerase α (Homo sapiens, UniProt P09884); test: Inhibition of human DNA polymerase α; type: biochemical
T3 sequence (P09884 1-1462): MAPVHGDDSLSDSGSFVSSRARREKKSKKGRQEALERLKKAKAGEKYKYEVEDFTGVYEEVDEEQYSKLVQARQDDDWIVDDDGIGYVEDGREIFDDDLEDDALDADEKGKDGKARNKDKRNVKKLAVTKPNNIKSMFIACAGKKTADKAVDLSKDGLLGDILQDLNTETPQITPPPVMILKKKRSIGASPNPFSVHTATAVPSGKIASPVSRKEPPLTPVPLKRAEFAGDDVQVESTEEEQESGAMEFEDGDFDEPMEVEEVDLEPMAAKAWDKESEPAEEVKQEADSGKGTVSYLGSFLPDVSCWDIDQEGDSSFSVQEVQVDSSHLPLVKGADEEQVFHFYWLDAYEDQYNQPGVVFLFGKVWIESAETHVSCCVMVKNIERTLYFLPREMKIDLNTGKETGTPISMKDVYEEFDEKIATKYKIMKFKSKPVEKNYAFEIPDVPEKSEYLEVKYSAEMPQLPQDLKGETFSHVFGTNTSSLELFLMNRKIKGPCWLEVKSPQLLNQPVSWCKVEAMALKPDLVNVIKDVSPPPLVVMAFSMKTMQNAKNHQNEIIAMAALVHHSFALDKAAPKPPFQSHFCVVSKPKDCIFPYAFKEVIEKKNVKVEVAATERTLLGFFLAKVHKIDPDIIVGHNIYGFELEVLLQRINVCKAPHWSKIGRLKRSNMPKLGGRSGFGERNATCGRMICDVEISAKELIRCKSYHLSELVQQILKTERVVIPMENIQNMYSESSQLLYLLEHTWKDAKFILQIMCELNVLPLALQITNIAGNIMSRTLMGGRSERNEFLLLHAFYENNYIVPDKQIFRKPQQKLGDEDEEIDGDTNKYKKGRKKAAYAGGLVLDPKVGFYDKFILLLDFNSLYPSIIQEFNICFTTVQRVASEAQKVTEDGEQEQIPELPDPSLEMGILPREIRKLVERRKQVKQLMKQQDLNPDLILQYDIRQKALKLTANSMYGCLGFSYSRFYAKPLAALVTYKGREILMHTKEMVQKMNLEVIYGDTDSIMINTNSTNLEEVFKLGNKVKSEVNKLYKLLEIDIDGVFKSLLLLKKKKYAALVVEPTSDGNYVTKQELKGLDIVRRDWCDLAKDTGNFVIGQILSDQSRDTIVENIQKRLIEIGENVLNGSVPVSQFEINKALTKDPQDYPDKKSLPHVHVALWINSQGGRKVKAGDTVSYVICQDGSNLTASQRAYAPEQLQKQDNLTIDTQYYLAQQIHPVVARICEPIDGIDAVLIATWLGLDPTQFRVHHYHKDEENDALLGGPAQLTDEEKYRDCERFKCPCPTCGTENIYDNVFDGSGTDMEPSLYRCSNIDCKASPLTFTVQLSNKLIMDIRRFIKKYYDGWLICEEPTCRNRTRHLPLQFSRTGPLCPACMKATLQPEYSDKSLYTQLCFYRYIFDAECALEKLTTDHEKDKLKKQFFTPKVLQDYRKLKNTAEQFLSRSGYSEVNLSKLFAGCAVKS

[16] = biological target: human DNA polymerase β (Homo sapiens, UniProt P06746); test: Inhibition of human DNA polymerase β; type: biochemical
[17] = biological target: HCV polymerase (Hepatitis C virus genotype 1a, UniProt P27958); test: Inhibition of HCV polymerase; type: biochemical
[18] = biological target: T4, human RNA polymerase II (Homo sapiens, UniProt P24928+P30876); test: Human RNA polymerase II activity in cell extracts; type: biochemical
T4 construct: endogenous in cells; host or cells: HeLa

[19] = biological target: Dengue virus polymerase (Dengue virus type 2, UniProt P29990); test: Inhibition of Dengue virus polymerase; type: biochemical
[20] = biological target: T5, mitochondrial DNA polymerase pol γ (Homo sapiens, UniProt P54098); test: Inhibition of mitochondrial DNA polymerase pol γ; type: biochemical; details: read-out: DNA pol γ IC50
T5 sequence (P54098 1-1239): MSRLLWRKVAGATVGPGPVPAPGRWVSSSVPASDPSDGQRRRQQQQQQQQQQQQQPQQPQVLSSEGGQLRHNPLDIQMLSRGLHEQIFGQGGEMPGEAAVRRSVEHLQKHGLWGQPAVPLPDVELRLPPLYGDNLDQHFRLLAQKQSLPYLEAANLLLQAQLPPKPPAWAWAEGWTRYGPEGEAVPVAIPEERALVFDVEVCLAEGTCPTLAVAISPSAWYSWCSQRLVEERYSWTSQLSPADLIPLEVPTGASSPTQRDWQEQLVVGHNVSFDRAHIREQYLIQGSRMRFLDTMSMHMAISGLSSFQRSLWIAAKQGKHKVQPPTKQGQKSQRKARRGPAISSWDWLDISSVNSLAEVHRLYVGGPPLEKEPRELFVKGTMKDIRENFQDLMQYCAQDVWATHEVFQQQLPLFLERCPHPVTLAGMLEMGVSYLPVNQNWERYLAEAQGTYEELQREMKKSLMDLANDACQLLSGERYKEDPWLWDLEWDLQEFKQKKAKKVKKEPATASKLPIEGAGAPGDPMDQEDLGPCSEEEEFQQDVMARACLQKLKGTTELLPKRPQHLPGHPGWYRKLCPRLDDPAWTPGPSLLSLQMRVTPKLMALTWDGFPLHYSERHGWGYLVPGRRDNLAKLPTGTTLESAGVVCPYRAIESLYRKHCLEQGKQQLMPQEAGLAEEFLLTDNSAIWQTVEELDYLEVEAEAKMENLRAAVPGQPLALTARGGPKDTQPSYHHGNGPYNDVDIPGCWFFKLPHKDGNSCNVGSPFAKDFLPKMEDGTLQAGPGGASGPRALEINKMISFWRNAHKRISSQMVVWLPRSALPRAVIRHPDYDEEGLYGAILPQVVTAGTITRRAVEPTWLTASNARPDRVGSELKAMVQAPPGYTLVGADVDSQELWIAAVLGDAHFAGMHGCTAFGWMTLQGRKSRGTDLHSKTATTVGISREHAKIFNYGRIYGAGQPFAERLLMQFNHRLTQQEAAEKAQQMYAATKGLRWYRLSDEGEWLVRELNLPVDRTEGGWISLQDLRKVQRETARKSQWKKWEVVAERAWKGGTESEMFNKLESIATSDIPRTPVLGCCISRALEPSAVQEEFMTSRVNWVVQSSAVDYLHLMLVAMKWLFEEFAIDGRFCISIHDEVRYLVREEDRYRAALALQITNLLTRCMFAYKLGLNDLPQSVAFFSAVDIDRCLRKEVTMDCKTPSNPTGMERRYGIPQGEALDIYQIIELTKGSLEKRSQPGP

[21] = biological target: T1, human RNA polymerase III; test: RNA polymerase III specific reporter gene assay in HeLa cells; type: cell-based; details: 10 or 100 μM (highest soluble concentrations)
[22] = system: ZIKV strain MR766 (Genbank LC002520); test: Antiviral activity against ZIKV replication in cells; type: cell-based, Zika virus
Method: (§3) The human hepatoma cell line Huh-7, are cultured in DMEM without phenol-red (Cellgro Mediatech, Cat #10-013-CV containing 4.5 g/l glucose, L-glutamine & sodium pyruvate). The medium is further supplemented with 10% (v/v) FBS (ATLAS Cat # F-0500-A, lot#850114A) and 1% (vlv) penicillin/streptomycin (Cellgro Mediatech #30-022-CI). Cells are maintained at 37° C. in a humidified 5% CO2 atmosphere. Zika virus representative strain titers are measured on BHK-21 cells, using a standard plaque assay procedure. For the determination of EC50 of nucleoside in the antiviral assay, Huh-7 cells are plated in white 96-well plates in MEM media supplemented with 10% FBS and 1% penicillin/streptomycin. After incubation for 24 h, the cells are infected at a multiplicity of infection (MOI) of 0.5 for 2 h at 37° C. Ten three-fold dilutions of compounds are prepared in the same media supplemented with 1% DMSO. After the 2 h adsorption phase, the virus is aspirated off and diluted compound is added to four wells each. Huh-7 cells are plated as described above and exposed to the same concentration range of compounds. Untreated cells are carried along as a control. After a 3-day incubation at 37° C., the cell viability is determined using Cell-titer Glo™ reagent (Promega, Madison, Wis.) that is added to each well and incubated for 5 min. Plates are analyzed using a Thermo Luminoskan plate reader (Waltham, Mass.).

[23] = biological target: T2, human RNA polymerase I; test: RNA polymerase I specific reporter gene assay in HeLa cells; type: cell-based; details: 10 or 100 μM (highest soluble concentrations)
[24] = Cell viability (CC50) alongside ZIKV antiviral assay, Cell-titer Glo; type: cell-based; details: human, Huh-7 cells
Method: as §3

[25] = biological target: T4, human RNA polymerase II; test: RNA polymerase II specific reporter gene assay in HeLa cells; type: cell-based; details: 10 or 100 μM (highest soluble concentrations)

Chain of influenza polymerase (P03431 whole entry, looked up): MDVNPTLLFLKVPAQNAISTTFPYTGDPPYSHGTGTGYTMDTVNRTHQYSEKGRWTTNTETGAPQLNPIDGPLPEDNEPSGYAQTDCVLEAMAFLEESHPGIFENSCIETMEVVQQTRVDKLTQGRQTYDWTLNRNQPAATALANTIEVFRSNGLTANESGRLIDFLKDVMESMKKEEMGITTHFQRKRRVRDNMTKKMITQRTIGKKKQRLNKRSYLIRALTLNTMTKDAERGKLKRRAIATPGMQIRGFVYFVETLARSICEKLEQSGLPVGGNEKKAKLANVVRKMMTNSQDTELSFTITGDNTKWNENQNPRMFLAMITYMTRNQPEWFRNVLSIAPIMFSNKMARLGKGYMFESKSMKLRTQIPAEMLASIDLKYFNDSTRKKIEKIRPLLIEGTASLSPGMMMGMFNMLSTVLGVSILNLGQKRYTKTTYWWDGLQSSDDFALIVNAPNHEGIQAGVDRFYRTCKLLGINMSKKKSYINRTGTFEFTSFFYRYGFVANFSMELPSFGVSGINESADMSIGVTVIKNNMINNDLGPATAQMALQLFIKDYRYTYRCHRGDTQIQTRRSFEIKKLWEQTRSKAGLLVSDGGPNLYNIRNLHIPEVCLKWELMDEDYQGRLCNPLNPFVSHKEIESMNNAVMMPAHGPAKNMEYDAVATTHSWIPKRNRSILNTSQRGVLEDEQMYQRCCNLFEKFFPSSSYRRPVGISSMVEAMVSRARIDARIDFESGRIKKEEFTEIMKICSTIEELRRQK
Chain of HCV polymerase (P27958 2421-3011): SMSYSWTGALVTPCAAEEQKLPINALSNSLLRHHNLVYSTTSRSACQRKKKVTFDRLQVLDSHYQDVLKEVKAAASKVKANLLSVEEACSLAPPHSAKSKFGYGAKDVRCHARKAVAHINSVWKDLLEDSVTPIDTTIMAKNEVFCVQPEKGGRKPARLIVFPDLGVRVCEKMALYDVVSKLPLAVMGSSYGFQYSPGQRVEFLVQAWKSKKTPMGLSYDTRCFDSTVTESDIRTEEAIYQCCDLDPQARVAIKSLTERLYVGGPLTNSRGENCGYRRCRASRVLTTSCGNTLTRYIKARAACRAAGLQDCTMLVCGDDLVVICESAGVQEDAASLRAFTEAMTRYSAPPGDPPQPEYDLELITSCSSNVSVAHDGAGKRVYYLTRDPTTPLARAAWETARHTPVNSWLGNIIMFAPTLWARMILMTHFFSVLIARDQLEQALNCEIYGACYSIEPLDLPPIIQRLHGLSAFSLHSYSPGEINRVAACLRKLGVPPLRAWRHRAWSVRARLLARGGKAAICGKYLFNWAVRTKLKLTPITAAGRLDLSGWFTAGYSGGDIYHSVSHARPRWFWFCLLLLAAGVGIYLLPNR
Chain of Dengue virus polymerase (P29990 2492-3391): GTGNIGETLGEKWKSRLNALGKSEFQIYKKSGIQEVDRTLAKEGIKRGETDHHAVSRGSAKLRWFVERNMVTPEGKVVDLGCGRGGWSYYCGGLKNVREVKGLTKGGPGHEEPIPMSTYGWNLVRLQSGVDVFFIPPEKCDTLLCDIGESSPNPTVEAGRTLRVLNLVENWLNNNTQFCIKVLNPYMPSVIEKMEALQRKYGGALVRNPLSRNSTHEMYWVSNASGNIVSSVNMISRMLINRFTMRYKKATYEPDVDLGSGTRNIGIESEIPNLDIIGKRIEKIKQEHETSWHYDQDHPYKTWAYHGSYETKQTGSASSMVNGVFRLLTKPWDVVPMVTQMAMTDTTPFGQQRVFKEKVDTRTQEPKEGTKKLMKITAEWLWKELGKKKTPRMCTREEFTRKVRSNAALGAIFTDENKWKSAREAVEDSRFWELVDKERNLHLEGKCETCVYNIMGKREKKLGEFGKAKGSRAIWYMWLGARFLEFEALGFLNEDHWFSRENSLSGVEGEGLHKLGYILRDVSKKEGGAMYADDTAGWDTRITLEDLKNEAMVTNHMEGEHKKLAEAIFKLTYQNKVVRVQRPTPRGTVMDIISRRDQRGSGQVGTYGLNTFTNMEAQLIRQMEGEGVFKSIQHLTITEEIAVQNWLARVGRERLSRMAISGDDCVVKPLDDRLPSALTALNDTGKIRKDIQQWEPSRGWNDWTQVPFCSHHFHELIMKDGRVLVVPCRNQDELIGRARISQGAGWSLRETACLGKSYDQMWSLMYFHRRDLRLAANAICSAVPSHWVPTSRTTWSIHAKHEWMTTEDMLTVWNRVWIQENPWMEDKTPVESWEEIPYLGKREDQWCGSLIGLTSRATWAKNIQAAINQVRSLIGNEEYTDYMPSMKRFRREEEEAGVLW

[N-]=[N+]=N[C@]1(CO)O[C@@H](n2ccc(=O)[nH]c2=O)[C@H](O)[C@@H]1O [Compound 4AU, 4′-azidouridine]
mitochondrial toxicity [1]: No mitochondrial toxicity; also recorded: lack of mitochondrial toxicity
safety in chronic toxicity study, monkeys [2]: safety of 4AU has already been demonstrated
CC50 [3]: > 1000 µM
safety in Phase 1 clinical study [4]: safety of 4AU has already been demonstrated
EC50 [5]: > 100 µM
safety in chronic toxicity study, rats [6]: safety of 4AU has already been demonstrated
EC50 [7]: 217 µM
conversion to 4AU-triphosphate (4AUTP) [8]: not efficiently converted
CC50 [9]: > 1000 µM
antiviral activity against HCV replication in Phase 1 study [10]: significant antiviral activity

[N-]=[N+]=N[C@]1(COP(=O)(O)OP(=O)(O)OP(=O)(O)O)O[C@@H](n2ccc(=O)[nH]c2=O)[C@H](O)[C@@H]1O [Compound 4AUTP, 4′-azido-uridine triphosphate]
activity against influenza polymerase [11]: not active
IC50 [12]: > 1000 µM
IC50 [13]: > 1000 µM
activity against RSV polymerase [14]: not active
IC50 [15]: > 1000 µM
IC50 [16]: > 1000 µM
inhibition of HCV polymerase [17]: inhibition
IC50 [18]: > 1000 µM
inhibition of Dengue virus polymerase [19]: inhibition
IC50 [20]: > 1000 µM

CCOC(=O)[C@H](C)NP(=O)(OC[C@@]1(N=[N+]=[N-])O[C@@H](n2ccc(=O)[nH]c2=O)[C@H](O)[C@@H]1O)Oc1cccc2ccccc12 (stereo partly drawn) [Compound I-3, ethyl ((((2R,3S,4R,5R)-2-azido-5-(2,4-dioxo-3,4-dihydropyrimidin-1(2H)-yl)-3,4-dihydroxytetrahydrofuran-2-yl)methoxy)(naphthalen-1-yloxy)phosphoryl)-L-alaninate]
CC50 [3]: > 100 µM
EC50 [5]: 4.1 µM
inhibition of human RNA polymerase III activity (reporter gene) [21]: did not inhibit
EC50 [7]: 0.4 µM
EC50 ([22]; Zika virus, ZIKV strain MR766, human Huh-7 or mouse MEF cells): 0.48 µM
antiviral inhibition potency (EC50), in words ([22]; summary statement): submicromolar
inhibition of human RNA polymerase I activity (reporter gene) [23]: did not inhibit
CC50 at 3 day ([24]; cytotoxicity column of the ZIKV assay, read-out: ZIKV CC50): > 100 µM
CC50 at 3 day ([24]; summary statement, cytotoxicity in cell culture, read-out: Huh-7 cell CC50): > 100 µM
inhibition of human RNA polymerase II activity (reporter gene) [25]: did not inhibit
CC50 [9]: > 100 µM

From patent publication US20170232031A1, “Inhibitors of Zika Virus” (Riboscience LLC, priority 2016, published 2017)
